One experiment has as its target T1, GLUT1 (Mus musculus, UniProt P17809).
T1 construct: LDM contains small intracellular vesicles of GLUT4 and GLUT1; endogenous in cells; host or cells: low-density microsome fraction of differentiated 3T3-L1 adipocytes
T1 sequence (P17809 1-492): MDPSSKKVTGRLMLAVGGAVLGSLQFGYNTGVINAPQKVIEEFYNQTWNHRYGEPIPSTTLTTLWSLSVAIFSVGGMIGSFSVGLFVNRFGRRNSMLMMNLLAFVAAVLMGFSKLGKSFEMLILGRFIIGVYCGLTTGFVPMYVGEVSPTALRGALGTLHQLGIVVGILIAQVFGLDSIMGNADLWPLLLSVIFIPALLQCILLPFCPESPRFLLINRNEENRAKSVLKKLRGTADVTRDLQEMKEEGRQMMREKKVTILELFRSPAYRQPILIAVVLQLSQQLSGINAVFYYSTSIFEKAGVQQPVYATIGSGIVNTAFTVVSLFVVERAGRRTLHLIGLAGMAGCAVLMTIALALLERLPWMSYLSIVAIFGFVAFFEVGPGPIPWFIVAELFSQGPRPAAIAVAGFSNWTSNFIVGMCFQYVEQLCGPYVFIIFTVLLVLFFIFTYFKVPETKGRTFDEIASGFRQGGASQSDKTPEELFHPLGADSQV
The experiment is described as follows: ATB-BMPA photolabeling of low-density microsomes (LDM) from 3T3-L1 adipocytes, GLUT1. Format: binding. As to conditions: LDM 200 µg, biotinylated ATB-BMPA 50 µM, mean ± S.E., n = 3; read-out: Half-maximal inhibition (IC50) of ATB-BMPA binding to GLUT1. The method, then: 3T3-L1 fibroblasts were grown to confluency and 48 h later subjected to differentiation as previously described. 3T3-L1 adipocytes were used 10 – 14 days after differentiation. Six culture dishes (15 cm) of adipocytes were serum-starved overnight, washed 3 times with ice-cold HES buffer (50 mM Hepes, pH 7.4, 255 mM sucrose, and 1 mM EDTA) containing Roche complete protease inhibitors (Roche Applied Science, Mannheim, Germany), scraped into 5 ml of the same buffer, and then homogenized with either a ball-bearing homogenizer or with a Potter-Elvehjem tissue grinder and a PTFE pestle. The low-density microsome (LDM) fraction was obtained by differential centrifugation as described previously. LDM were resuspended in phosphate buffer (25 mM phosphate, pH 7.4, 100 mM NaCl, 5% glycerol) containing complete Roche protease inhibitors.
Inhibitors were added to LDM (200 µg protein unless otherwise stated) for 10 min at room temperature. Samples (final volume 110 µl) were then incubated for 10 min at room temperature in the dark with biotinylated ATB-BMPA (50 µM final concentration) and then placed on ice prior to UV irradiation. Reactions were transferred to a 24-well low protein retention culture dish (Costar, Corning, NY) and then irradiated at room temperature 5 cm from a Green Spot UV lamp for 1 min (30 sec of light, followed by 30 sec of darkness, followed by 30 sec of light).
20 µl of BSA (1.5 mg/ml final concentration) was added to the UV irradiated samples in a siliconized eppendorph tube. Excess biotinylated ATB-BMPA label was removed using a 0.5 ml Zeba Spin Desalting Column (Pierce). Biotinylated proteins were isolated essentially as described previously. Membranes were solubilized for 30 min at 4°C with 2% Thesit detergent buffer containing protease inhibitors. After centrifugation at 16,000 x g for 10 min, the supernatants were incubated overnight at 4°C with 50 µl of high capacity Streptavidin Agarose resin (Pierce). Precipitates were washed 3 times with 1% Thesit detergent buffer, twice with 0.1% Thesit detergent buffer, and once with phosphate buffer. Biotinylated proteins were eluted at 95 – 100°C for 20 min in 60 µl of 2X Laemmli Sample Buffer containing 40 mM dithiothreitol. Half of the eluted proteins were subjected to SDS-PAGE and transferred to nitrocellulose. Immunoblot analysis was carried out using GLUT4 and GLUT1 specific antibodies and quantified using an Odyssey Infrared Imaging System (LI-COR Biosciences, Lincoln, NE).

A further experiment has as its system primary rat adipocytes. The experiment in a line: 2-Deoxyglucose uptake in insulin-stimulated primary rat adipocytes (predominantly GLUT4). It is filed as cell-based. As to conditions: for Effect on 2-deoxyglucose uptake (GLUT4 transporter activity): primary rat adipocytes. The method, then: Adipocytes from epididymal fat pads were prepared from male Wistar rats weighing 150 – 200 g (from Charles River Laboratories, Inc., Wilmington, MA) as previously described. Adipocytes were stimulated with 1 µM insulin for 30 min at 37°C prior to use. 2-Deoxyglucose uptakes were performed by adding 80 µl of the cell suspension to 80 µl of Krebs-Ringer bicarbonate Hepes buffer (KRB) (120 mM NaCl, 4 mM KH2PO4, 1 mM MgSO4, 1 mM CaCl2, 10 mM NaHCO3, 200 nM adenosine, 30 mM Hepes, pH 7.4) containing 3% bovine serum albumin. HIV protease inhibitors / vehicle were added 5 min prior to the initiation of the reaction. Uptakes were initiated with the addition of 20 µl of [^3H]2-deoxyglucose (final 2-deoxyglucose concentration 50 µM; 0.5 µCi/assay). After 1 min at 37 °C, reactions were quenched with cytochalasin B to a final concentration of 0.4 mM. The cells were separated by spinning the reaction through dinonylphthalate as previously described and the intracellular radioactivity was quantified by liquid scintillation counting. Non-specific uptake measured in the presence of 20 µM cytochalasin B (Sigma) was subtracted from the experimental values.

By IC50 is commonly meant the concentration needed to halve the response being measured. Turning to `CC(C)(C)NC(=O)[C@@H]1CN(Cc2cccnc2)CCN1C[C@@H](O)C[C@@H](Cc1ccccc1)C(=O)N[C@H]1c2ccccc2C[C@H]1O` [Indinavir, indinavir], the IC50 worked out at 178 ± 43 µM at GLUT1 and 11 µM with primary rat adipocytes (Rattus norvegicus, Adipocyte, insulin-stimulated, 50 µM 2-deoxyglucose, read-out: IC50 for inhibition of 2-deoxyglucose uptake in primary rat adipocytes). For the same molecule, the “Effect on 2-deoxyglucose uptake (GLUT4 transporter activity)” value in the experiment on primary rat adipocytes (10 µM PI) is listed as “reduced”; with primary rat adipocytes (50 µM PI) it was “affected”.

The values are drawn from article PMC3179492, “HIV Protease Inhibitors Act as Competitive Inhibitors of the Cytoplasmic Glucose Binding Site of GLUTs with Differing Affinities for GLUT1 and GLUT4” (PLoS ONE, 2011).
